For one experiment, the target named is T1, PfHsp70-1 + PfYdj1 (Plasmodium falciparum, UniProt Q8IB24).
T1 construct: gene PF3D7_0818900; both full length, N-terminal His6 tag (pET28a), E. coli, Ni-NTA; tags kept; with HSP40, subfamily A
In words: EnzChek phosphate ATPase assay. Type of experiment: biochemical. The conditions noted are these: inhibits PfYdj1-stimulated ATP hydrolysis; 1 and 20 µM compound (21 µM in figure legend); 50 µM ATP, 2 µM each protein, 2 mM MgCl2, pH 7.5, 37°C.

A further experiment has as its target T2, PfHsp70-1 (Plasmodium falciparum, UniProt Q8IB24).
T2 construct: gene PF3D7_0818900; full length, N-terminal His6 tag (pET28a), E. coli Rosetta (DE3), Ni-NTA; tag kept
Type of experiment: biochemical. The conditions noted are these: basal ATPase without cochaperone; 50 µM ATP, 2 µM protein, 2 mM MgCl2, pH 7.5, 37°C.

Experiment [1] deals with Recombinant PfHsp70-1 (His6-tagged, purified) (Plasmodium falciparum 3D7) (UniProt Q8IB24). The conditions noted are these: scale: µM min^−1 per µM concentration of the enzyme.

Regarding `CC1=C(C(=O)OCc2ccccc2)C(c2ccc(-c3ccccc3)cc2)NC(=O)N1CCCCCC(=O)O` (stereo not drawn) [116-9e], on PfHsp70-1 + PfYdj1, the “EnzChek phosphate ATPase assay” value is reported as “observed a reduced stimulation of PfYdj1-mediated ATP hydrolysis of PfHsp70-1 in a dose-dependent manner”.

On to `Nc1ncnc2c1ncn2[C@@H]1O[C@H](COP(=O)(O)OP(=O)(O)OP(=O)(O)O)[C@@H](O)[C@H]1O` [ATP], for which the “EnzChek phosphate ATPase assay” value on PfHsp70-1 is listed as “PfHsp70-1 showed a basal level of ATPase activity”.

B1: Recombinant PfSis1 (His6-tagged, purified) (natural protein)
chain: MGKDYYSILGVSRDCTTNDLKKAYRKLAMMWHPDKHNDEKSKKEAEEKFKNIAEAYDVLADEEKRKIYDTYGEEGLKGSIPTGGNTYVYSGVDPSELFSRIFGSDGQFSFTSTFDEDFSPFSTFVNMTSRKSRPSTTTNINTNNYNKPATYEVPLSLSLEELYSGCKKKLKITRKRFMGTKSYEDDNYVTIDVKAGWKDGTKITFYGEGDQLSPMAQPGDLVFKVKTKTHDRFLRDANHLIYKCPVPLDKALTGFQFIVKSLDNRDINVRVDDIVTPKSRKIVAKEGMPSSKYPSMKGDLIVEFDIVFPKSLTSEKKKIIRETLANTF
On to B1, for which the PfSis1-induced rate of ATP hydrolysis of PfHsp70-1 without and with 1 µM and 20 µM 116-9e (0.37 without, 0.322 at 1 µM, 0.087 at 20 µM) in experiment [1] worked out at 0.37.

For the origin of these results see paper PMC12505967, “Inhibition of the assembly of Plasmodium Hsp70-1 and Hsp40 complex blocks DNA replication by destabilizing ribonucleotide reductase subunit-2” (mBio, 2025).
